Reference: article PMC6572618, “Anti-Trypanosomal and Antimalarial Properties of Tetralone Derivatives and Structurally Related Benzocycloalkanones” (Medicina, 2019)

Key:
Assay type in all cases: cell-based
[1] = tested on: chloroquine sensitive strain of P. falciparum (3D7); assay: In vitro antiplasmodial assay (parasite lactate dehydrogenase, pLDH); settings: Plasmodium falciparum, 3D7, 48 h, 20 µM compound, 48 h, P. falciparum 3D7, % parasite viability relative to untreated parasites; read-out: % Viability at 20 µM (SD) 3D7
Experimental: An antimalarial evaluation was performed against the chloroquine sensitive strain of P. falciparum (3D7) using the parasite lactate dehydrogenase (pLDH) assay as previously reported. Parasites were seeded at 2% parasitemia and 1% hematocrit in 96 well plates and were incubated with 20 µM of the test compounds for 48 h in culture medium consisting of Rosell Park Memorial Institute (RPMI 1640; Lonza, Basel, Switzerland) containing 25 mM 4-(2-hydroxyethyl)-1-piperazineethanesulfonic acid (HEPES), supplemented with 0.5% (w/v) Albumax II, 22 mM glucose, 0.65 mM hypoxanthine, 0.05mg/mL gentamicin, and 1% (v/v) human erythrocytes, at 37 °C under an atmosphere of 5% CO2, 5% O2, and 90% N2. The parasite lactate dehydrogenase activity in the wells was determined using the colorimetric assay method of Makler et al.. The absorbance readings were converted to % parasite viability relative to the wells containing untreated parasites.
(§1) Thirty-five tetralone derivatives (see Figure 2) and six related benzocycloalkanones (see Figure 3) were evaluated in vitro against T. b. brucei for antitrypanosomal activity through the resazurin assay protocol. The compounds were also evaluated against the chloroquine-sensitive strain (3D7) of P. falciparum for antimalarial activity using pLDH assay and against the HeLa cell line for cytotoxicity evaluation using the resazurin assay protocol.

[2] = tested on: 427 Trypanosoma brucei brucei trypomastigotes; assay: In vitro anti-trypanosomal assay (resazurin); settings: Trypanosoma brucei, 48 h; for viability at 20 µM: 20 µM compound, % parasite viability relative to untreated control, read-out: % Viability at 20 µM (SD) T.b. brucei; for IC50: three-fold serial dilutions from 100 µM, read-out: IC50 (µM) T. b. brucei
Experimental: The activity of the compounds against 427 Trypanosoma brucei brucei trypomastigotes was determined as previously described. Briefly, parasites were incubated in 96-well plates with 20 µM or three-fold serial dilutions (100 µM starting concentration) of test compounds in Iscove’s modified Dulbecco’s medium (IMDM) (Lonza, Basel, Switzerland) supplemented with 10% fetal calf serum, HMI-9 supplement, hypoxanthine, and penicillin/streptomycin at 37 °C in a 5% CO2 incubator. After 48 h, 20 µL of resazurin reagent (0.135 mg/mL resazurin in phosphate-buffered saline) was added to each well and the fluorescence (Ex560/Em590) read after 2–4 h in a Spectramax M3 plate reader (Molecular Devices, San Jose, CA, USA). The fluorescence readings were used to calculate % parasite viability relative to the readings obtained from the wells containing untreated control parasite cultures. The IC50 values were determined by plotting % viability vs. log(compound) and performing a non-linear regression using a GraphPad Prism (v. 5.02) (San Diego, CA, USA).
as §1

[3] = In vitro cytotoxicity assay (resazurin); settings: human, HeLa cells; 20 µM compound, 24 h, % cell viability relative to untreated control; read-out: % Viability at 20 µM (SD) HeLa Cell
Experimental: As previously described, HeLa cells (Cellonex, Johannesburg, South Africa) were seeded in 96-well plates at a density of 2 × 10^4 cells/well in Dulbecco’s modified Eagle’s medium (DMEM) (Lonza, Basel, Switzerland) supplemented with 10% fetal calf serum and antibiotics (penicillin/streptomycin/amphotericin B) and incubated overnight at 37 °C in a 5% CO2 incubator. Compounds were added to the cells at a final concentration of 20 µM, and incubation continued for 24 h. The cell viability in the wells was assessed by adding 20 µL of resazurin reagent (0.135 mg/mL resazurin in phosphate-buffered saline) and reading the fluorescence (Ex560/Em590) after an additional 2–4 h incubation. The fluorescence readings were converted to % cell viability relative to the average readings obtained from the untreated control wells.
as §1

**Q.** For `COc1ccc(/C=C2\CCc3ccccc3C2=O)cc1` [Compound 4], which viability at 20 µM [1] is on record?
**A.** 100%

**Q.** And the viability at 20 µM [2]?
**A.** 0.5%

**Q.** What about the IC50 [2] of the same compound?
**A.** 6.7 µM

**Q.** What about the viability at 24 h, 20 µM [3] of the same compound?
**A.** 76%

**Q.** Which viability at 20 µM [1] does the source give for `O=C1/C(=C/c2cccc(F)c2)CCc2ccccc21` [Compound 6] here?
**A.** 131%

**Q.** And the viability at 20 µM [2]?
**A.** 0.5%

**Q.** And the IC50 [2]?
**A.** 3.1 µM

**Q.** What about the viability at 24 h, 20 µM [3] of the same compound?
**A.** 121%

**Q.** Which viability at 20 µM [1] does the source give for `COc1ccc2c(c1)C(=O)/C(=C/C1CCCCC1)CC2` [Compound 26] here?
**A.** 119%

**Q.** And the viability at 20 µM [2]?
**A.** < 1%

**Q.** What about the viability at 24 h, 20 µM [3] of the same compound?
**A.** 92%

**Q.** What does the source list for `COc1ccc2c(c1)C(=O)/C(=C/c1ccsc1)CC2` [Compound 35]?
**A.** viability at 20 µM [1]: 86%; viability at 20 µM [2]: 22%; IC50 [2]: 2.6 µM; viability at 24 h, 20 µM [3]: 122%

**Q.** For `COc1ccc2c(c1)C(=O)/C(=C/c1ccccc1)CC2` [Compound 10], which viability at 20 µM [1] is on record?
**A.** 113%

**Q.** And the IC50 [2]?
**A.** 1.04 µM

**Q.** And the viability at 24 h, 20 µM [3]?
**A.** 65%
